Measurements reported in US11572399B2, “Long-acting GIP peptide analogues” (University of Copenhagen, priority 2017, dated 2023).
“And” between values parts separate entries of the source, which are not always exact repeats. Equal values may be shown once. Read-outs that look alike come from different tables or passages of the source. Peptide text beside a SMILES is read from it. * marks the point of attachment. C16 diacid = O=C(O)CCCCCCCCCCCCCCC(=O)*; Stearoyl = CCCCCCCCCCCCCCCCCC(=O)*; Palmitoyl = CCCCCCCCCCCCCCCC(=O)*

Experiments:
human GIP receptor [1] = molecular target: T1, human GIP receptor (Homo sapiens, UniProt P48546); experiment: cAMP accumulation assay, agonism (ligand alone); assay type: cell-based; conditions: Table 1; for Emax: COS-7, intrinsic cAMP activity
T1 construct: host or cells: COS-7, transient transfection (calcium phosphate), cDNA in pCMV-Script
T1 sequence (P48546 22-466): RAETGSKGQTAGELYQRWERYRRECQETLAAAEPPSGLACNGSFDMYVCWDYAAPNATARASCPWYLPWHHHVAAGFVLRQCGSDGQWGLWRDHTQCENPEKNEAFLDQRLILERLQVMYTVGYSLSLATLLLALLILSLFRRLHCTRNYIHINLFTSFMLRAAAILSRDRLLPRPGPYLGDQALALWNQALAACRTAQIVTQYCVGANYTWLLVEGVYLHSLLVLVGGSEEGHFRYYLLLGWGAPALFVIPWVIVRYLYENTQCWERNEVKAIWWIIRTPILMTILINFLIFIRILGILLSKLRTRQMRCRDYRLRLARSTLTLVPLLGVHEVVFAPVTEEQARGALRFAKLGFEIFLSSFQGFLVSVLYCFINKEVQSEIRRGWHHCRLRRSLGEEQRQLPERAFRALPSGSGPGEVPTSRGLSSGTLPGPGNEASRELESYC

human GIP receptor [2] = molecular target: T1, human GIP receptor; experiment: cAMP accumulation assay, antagonism of a GIP-mediated cAMP response (50-80% of max); assay type: cell-based; conditions: for Fold change of IC50 versus GIP(5-30)NH2: fold change of IC50 from GIP(5-30)NH2; for cAMP - antagonisme fold (paired): fold vs GIP(3-30)NH2
Procedure: The day after, the cells were washed twice with Hepes buffered saline (HBS) buffer and incubated with HBS and 1 mM 3-isobutyl-1-methylxanthine (IBMX) for 30 min at 37° C. […] The HitHunter™ cAMP XS assay (DiscoveRx) was carried out according to the manufacturer's instructions.

human GIP receptor [3] = molecular target: T1, human GIP receptor; experiment: 125I-human GIP competition binding assay, in the presence and absence of 2% HSA; conditions: for Fold change HSA (2%)/Casein (0.1%): IC50 (plus HSA)/IC50 (minus HSA); for Binding (+/−HSA) Fold: fold change +HSA/−HSA; for Binding fold (paired): fold decrease in affinity compared to GIP(3-30)NH2; for Fold change in affinity, IC50 (plus HSA)/IC50 (minus HSA): presence vs absence of 2% HSA, proxy for albumin binding;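 on all read-outs here: nonspecific binding taken as radioligand bound to untransfected cells, IC50 obtained from nonlinear regression fits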
[4] = binding in 0.1% casein (absence of HSA), log value, read-out: logIC50 0.1% casein (converted)
[5] = heterologous competition binding, transiently transfected COS-7 cells expressing the human GIP receptor, read-out: Binding
[6] = Table 3b, initial data, read-out: cAMP - antagonisme IC50
[7] = given as log IC50 (negative sign), transiently transfected COS-7 cells, Table 1, read-out: cAMP antagonism log (converted)
[8] = Table 3b, initial data, read-out: Binding IC50
[9] = transiently transfected COS-7 cells, Table 1 and text, read-out: cAMP antagonism nM (IC50, antagonistic potency)
[10] = 0.1% casein, no HSA, Table 3b, read-out: Binding logIC50 0.1% casein (converted)

Structure (SMILES) | Emax (human GIP receptor [1]; COS-7 cells) [%] | Fold change of IC50 versus GIP(5-30)NH2 (human GIP receptor [2]) | Fold change HSA (2%)/Casein (0.1%) (human GIP receptor [3]) | IC50 (human GIP receptor [3]; [4]) [nM] | IC50 (human GIP receptor [3]; binding in presence of 2% HSA, read-out: logIC50 2% HSA (converted)) [nM] | Binding (+/−HSA) Fold (human GIP receptor [3]) | IC50 (human GIP receptor [3]; [5]) [nM] | IC50 (human GIP receptor [2]; [6]) [nM] | cAMP - antagonisme fold (paired) (human GIP receptor [2]; Table 3b) [fold] | IC50 (human GIP receptor [2]; [7]) [nM] | IC50 (human GIP receptor [3]; [8]) [nM] | Binding fold (paired) (human GIP receptor [3]; Table 3b) [fold] | Fold change in affinity, IC50 (plus HSA)/IC50 (minus HSA) (human GIP receptor [3]) [fold] | EC50 (human GIP receptor [1]; given as log EC50 (negative sign), read-out: cAMP agonism EC50 (log) (converted)) | IC50 (human GIP receptor [2]; [9]) [nM] | IC50 (human GIP receptor [3]; [10]) [nM] | IC50 (human GIP receptor [3]; 2% HSA, Table 3b, read-out: Binding logIC50 2% HSA (converted)) [nM] | EC50 (human GIP receptor [1]; COS-7 cells, read-out: cAMP agonism nM (EC50)) [nM]
CC[C@H](C)[C@H](NC(=O)[C@H](CO)NC(=O)[C@H](CCCCNC(=O)CCCCCCCCCCCCCCC(=O)O)NC(=O)[C@H](CC(=O)O)NC(=O)[C@H](CO)NC(=O)[C@@H](NC(=O)[C@H](Cc1ccccc1)NC(=O)[C@@H](N)[C@@H](C)O)[C@@H](C)CC)C(=O)N[C@@H](C)C(=O)N[C@@H](CCSC)C(=O)N[C@@H](CC(=O)O)C(=O)N[C@@H](CCCCN)C(=O)N[C@H](C(=O)N[C@@H](Cc1c[nH]cn1)C(=O)N[C@@H](CCC(N)=O)C(=O)N[C@@H](CCC(N)=O)C(=O)N[C@@H](CC(=O)O)C(=O)N[C@@H](Cc1ccccc1)C(=O)N[C@H](C(=O)N[C@@H](CC(N)=O)C(=O)N[C@@H](Cc1c[nH]c2ccccc12)C(=O)N[C@@H](CC(C)C)C(=O)N[C@@H](CC(C)C)C(=O)N[C@@H](C)C(=O)N[C@@H](CCC(N)=O)C(=O)N[C@@H](CCCCN)C(N)=O)C(C)C)[C@@H](C)CC [AT172, [hGIP(5-30)NH2[Y10K]-C16diacid/10]] (H-TFISDK(C16 diacid)SIAMDKIHQQDFVNWLLAQK-NH2; N-terminus assumed) | 0 | 14.1 | 3.8 | 251 | 955 | 2.8 | 252 |  |  |  |  |  |  |  |  |  |  | 
CCCCCCCCCCCCCCCCCC(=O)NCCCC[C@H](NC(=O)[C@H](CC(=O)O)NC(=O)[C@H](CCSC)NC(=O)[C@H](C)NC(=O)[C@@H](NC(=O)[C@H](CO)NC(=O)[C@H](Cc1ccc(O)cc1)NC(=O)[C@H](CC(=O)O)NC(=O)[C@H](CO)NC(=O)[C@@H](NC(=O)[C@H](Cc1ccccc1)NC(=O)[C@@H](NC(=O)CNC(=O)[C@@H](N)CCC(=O)O)[C@@H](C)O)[C@@H](C)CC)[C@@H](C)CC)C(=O)N[C@H](C(=O)N[C@@H](Cc1c[nH]cn1)C(=O)N[C@@H](CCC(N)=O)C(=O)N[C@@H](CCC(N)=O)C(=O)N[C@@H](CC(=O)O)C(=O)N[C@@H](Cc1ccccc1)C(=O)N[C@H](C(=O)N[C@@H](CC(N)=O)C(=O)N[C@@H](Cc1c[nH]c2ccccc12)C(=O)N[C@@H](CC(C)C)C(=O)N[C@@H](CC(C)C)C(=O)N[C@@H](C)C(=O)N[C@@H](CCC(N)=O)C(=O)N[C@@H](CCCCN)C(N)=O)C(C)C)[C@@H](C)CC [AT114, [hGIP(3-30)NH2—C18/16]] | 39 |  | 11.2 | 501 |  |  |  | 29.2 | 2.3 | 63.1 | 102 | 6.7 | 7.7 |  |  |  |  | 
CC[C@H](C)[C@H](NC(=O)[C@H](CO)NC(=O)[C@H](Cc1ccc(O)cc1)NC(=O)[C@H](CC(=O)O)NC(=O)[C@H](CO)NC(=O)[C@@H](NC(=O)[C@H](Cc1ccccc1)NC(=O)[C@@H](N)[C@@H](C)O)[C@@H](C)CC)C(=O)N[C@@H](C)C(=O)N[C@@H](CCSC)C(=O)N[C@@H](CC(=O)O)C(=O)N[C@@H](CCCCN)C(=O)N[C@H](C(=O)N[C@@H](Cc1c[nH]cn1)C(=O)N[C@@H](CCC(N)=O)C(=O)N[C@@H](CCC(N)=O)C(=O)N[C@@H](CC(=O)O)C(=O)N[C@@H](Cc1ccccc1)C(=O)N[C@H](C(=O)N[C@@H](CC(N)=O)C(=O)N[C@@H](Cc1c[nH]c2ccccc12)C(=O)N[C@@H](CC(C)C)C(=O)N[C@@H](CCCCNC(=O)CCCCCCCCCCCCCCC(=O)O)C(=O)N[C@@H](C)C(=O)N[C@@H](CCC(N)=O)C(=O)N[C@@H](CCCCN)C(N)=O)C(C)C)[C@@H](C)CC [AT187, [hGIP(5-30)NH2[L27K]-C16diacid/27]] (H-TFISDYSIAMDKIHQQDFVNWLK(C16 diacid)AQK-NH2; N-terminus assumed) | 25 | 67.6 | 4.7 |  |  | 18.2 | 26500 |  |  |  |  |  |  | 1000 nM and 2510 nM | 2380 |  |  | 
CC[C@H](C)[C@H](NC(=O)[C@H](CO)NC(=O)[C@H](Cc1ccc(O)cc1)NC(=O)[C@H](CC(=O)O)NC(=O)[C@H](CO)NC(=O)[C@@H](NC(=O)[C@H](Cc1ccccc1)NC(=O)[C@@H](NC(=O)CNC(=O)[C@@H](N)CCC(=O)O)[C@@H](C)O)[C@@H](C)CC)C(=O)N[C@@H](C)C(=O)N[C@@H](CCSC)C(=O)N[C@@H](CC(=O)O)C(=O)N[C@@H](CCCCN)C(=O)N[C@H](C(=O)N[C@@H](CCCCNC(=O)CCCCCCCCCCCCCCC(=O)O)C(=O)N[C@@H](CCC(N)=O)C(=O)N[C@@H](CCC(N)=O)C(=O)N[C@@H](CC(=O)O)C(=O)N[C@@H](Cc1ccccc1)C(=O)N[C@H](C(=O)N[C@@H](CC(N)=O)C(=O)N[C@@H](Cc1c[nH]c2ccccc12)C(=O)N[C@@H](CC(C)C)C(=O)N[C@@H](CC(C)C)C(=O)N[C@@H](C)C(=O)N[C@@H](CCC(N)=O)C(=O)N[C@@H](CCCCN)C(N)=O)C(C)C)[C@@H](C)CC [AT158, [hGIP(3-30)NH2[H18K]-C16diacid/18]] (H-EGTFISDYSIAMDKIK(C16 diacid)QQDFVNWLLAQK-NH2; N-terminus assumed) | 6 |  |  |  |  |  |  |  | 0.1 |  | 7.9 | 1 | 2.0 |  | 5 | 7.9 | 16 | 
CCCCCCCCCCCCCCCC(=O)NCCCC[C@H](NC(=O)[C@H](CCC(=O)O)NC(=O)[C@H](CCSC)NC(=O)[C@H](C)NC(=O)[C@@H](NC(=O)[C@H](CO)NC(=O)[C@H](Cc1ccc(O)cc1)NC(=O)[C@H](CC(=O)O)NC(=O)[C@H](CO)NC(=O)[C@@H](NC(=O)[C@H](Cc1ccccc1)NC(=O)[C@@H](NC(=O)CNC(=O)[C@@H](N)CCC(=O)O)[C@@H](C)O)[C@@H](C)CC)[C@@H](C)CC)C(=O)N[C@H](C(=O)N[C@@H](C)C(=O)N[C@@H](CCC(N)=O)C(=O)N[C@@H](CCC(N)=O)C(=O)N[C@@H](CC(=O)O)C(=O)N[C@@H](Cc1ccccc1)C(=O)N[C@H](C(=O)N[C@@H](CC(N)=O)C(=O)N[C@@H](Cc1c[nH]c2ccccc12)C(=O)N[C@@H](CC(C)C)C(=O)N[C@@H](CC(C)C)C(=O)N[C@@H](C)C(=O)N[C@@H](CCC(N)=O)C(=O)N[C@@H](CCCCN)C(N)=O)C(C)C)[C@@H](C)CC [AT131, [hGIP(3-30)NH2[D15E; H18A]-C16/16]] (H-EGTFISDYSIAMEK(Palmitoyl)IAQQDFVNWLLAQK-NH2; N-terminus assumed) | 35 |  |  |  |  |  | 6510 | 65 | 1.1 | 39.8 | 6510 | 49 |  |  |  |  |  | 
CCCCCCCCCCCCCCCCCC(=O)NCCCC[C@H](NC(=O)[C@@H](NC(=O)[C@H](CCCCN)NC(=O)[C@H](CC(=O)O)NC(=O)[C@H](CCSC)NC(=O)[C@H](C)NC(=O)[C@@H](NC(=O)[C@H](CO)NC(=O)[C@H](Cc1ccc(O)cc1)NC(=O)[C@H](CC(=O)O)NC(=O)[C@H](CO)NC(=O)[C@@H](NC(=O)[C@H](Cc1ccccc1)NC(=O)[C@@H](NC(=O)CNC(=O)[C@@H](N)CCC(=O)O)[C@@H](C)O)[C@@H](C)CC)[C@@H](C)CC)[C@@H](C)CC)C(=O)N[C@@H](CCC(N)=O)C(=O)N[C@@H](CCC(N)=O)C(=O)N[C@@H](CC(=O)O)C(=O)N[C@@H](Cc1ccccc1)C(=O)N[C@H](C(=O)N[C@@H](CC(N)=O)C(=O)N[C@@H](Cc1c[nH]c2ccccc12)C(=O)N[C@@H](CC(C)C)C(=O)N[C@@H](CC(C)C)C(=O)N[C@@H](C)C(=O)N[C@@H](CCC(N)=O)C(=O)N[C@@H](CCCCN)C(N)=O)C(C)C [AT160, [hGIP(3-30)NH2[H18K]-C18/18]] (H-EGTFISDYSIAMDKIK(Stearoyl)QQDFVNWLLAQK-NH2; N-terminus assumed) | 13 |  |  |  |  |  | 49 |  | 0.7 |  | 48.8 | 6 | 3.6 |  | 38 | 48.8 |  | 962
